Data from paper PMC7253177, “Gain of channel function and modified gating properties in TRPM3 mutants causing intellectual disability and epilepsy” (eLife, 2020).

Target: T1, WT human TRPM3 (Homo sapiens, UniProt Q9HCF6)
T1 construct: expressed in transfected cells; host or cells: HEK293T
T1 sequence (Q9HCF6 1-1325 isoform Q9HCF6-10): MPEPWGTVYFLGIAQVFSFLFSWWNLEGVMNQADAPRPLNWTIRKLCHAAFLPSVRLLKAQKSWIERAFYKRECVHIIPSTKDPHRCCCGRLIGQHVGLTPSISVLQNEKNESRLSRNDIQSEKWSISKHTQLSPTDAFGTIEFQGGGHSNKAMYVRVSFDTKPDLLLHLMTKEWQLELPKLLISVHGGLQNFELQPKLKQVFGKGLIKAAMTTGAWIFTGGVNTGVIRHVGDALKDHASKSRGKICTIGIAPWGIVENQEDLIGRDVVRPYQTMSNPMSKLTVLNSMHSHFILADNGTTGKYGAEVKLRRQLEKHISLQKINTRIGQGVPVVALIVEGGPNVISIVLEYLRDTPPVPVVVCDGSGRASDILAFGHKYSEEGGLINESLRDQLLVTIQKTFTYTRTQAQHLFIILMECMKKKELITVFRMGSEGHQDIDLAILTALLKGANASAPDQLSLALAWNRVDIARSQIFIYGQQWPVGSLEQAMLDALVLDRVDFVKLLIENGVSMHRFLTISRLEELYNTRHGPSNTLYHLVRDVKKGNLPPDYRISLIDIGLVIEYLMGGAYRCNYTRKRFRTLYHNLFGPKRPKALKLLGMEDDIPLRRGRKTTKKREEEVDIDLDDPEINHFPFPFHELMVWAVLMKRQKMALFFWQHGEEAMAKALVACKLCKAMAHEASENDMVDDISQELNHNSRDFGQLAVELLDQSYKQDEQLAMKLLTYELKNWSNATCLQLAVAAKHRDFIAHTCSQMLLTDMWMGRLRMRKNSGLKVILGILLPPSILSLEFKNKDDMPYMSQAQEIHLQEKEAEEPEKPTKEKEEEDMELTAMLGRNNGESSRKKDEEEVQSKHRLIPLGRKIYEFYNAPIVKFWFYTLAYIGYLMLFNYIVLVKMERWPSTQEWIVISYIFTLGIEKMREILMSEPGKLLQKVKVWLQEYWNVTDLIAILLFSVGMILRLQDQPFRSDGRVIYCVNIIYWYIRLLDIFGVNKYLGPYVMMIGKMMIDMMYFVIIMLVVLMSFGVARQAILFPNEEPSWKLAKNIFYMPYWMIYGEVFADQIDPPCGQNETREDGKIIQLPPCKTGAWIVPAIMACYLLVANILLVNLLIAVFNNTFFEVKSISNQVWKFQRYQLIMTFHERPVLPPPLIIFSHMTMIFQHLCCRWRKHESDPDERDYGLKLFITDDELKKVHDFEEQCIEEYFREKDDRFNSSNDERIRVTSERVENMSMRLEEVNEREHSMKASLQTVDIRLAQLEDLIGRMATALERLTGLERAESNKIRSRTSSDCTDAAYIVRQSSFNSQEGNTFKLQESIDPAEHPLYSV
Experiment: Fura-2-based calcium imaging, HEK293T cells transfected with WT hTRPM3
Assay type: cell-based
Protocol: HEK293T cells ([Graham et al., 1977]) were cultured as described previously ([Vriens et al., 2007]) and used up in passage number 14. HEK293T cells were tested for the lack of mycoplasma and transiently transfected with 2 µg of DNA using TransIT transfection reagent (Mirus) 36–48 hr before the measurements. In case of co-cultures a ratio of 1:1 between hTRPM3-YFP WT and mutants-YFP DNA was used.
Changes in intracellular calcium concentration were monitored using ratiometric Fura-2-based fluorimetry. Cells were loaded with 2 µM Fura-2-acetoxymethyl ester (Alexis Biochemicals) for 30 min at 37°C. Fluorescence was measured during alternating illumination at 340 and 380 nm using Eclipse Ti (Nikon) fluorescence microscopy system, and absolute calcium concentration was calculated from the ratio of the fluorescence signals at these two wavelengths (R = F340/F380) as [Ca^2+]=Km × (R-Rmin)/(Rmax-R), where Km, Rmin and Rmax were estimated from in vitro calibration experiments with known calcium concentrations. The bath solution contained (in mM) 138 NaCl, 5.4 KCl, 2 CaCl2, 2 MgCl2, 10 glucose, and 10 HEPES, pH 7.4. […] The chemical ligands were dissolved in bath solution from a stock diluted in DMSO.

CCC1(c2ccccc2)C(=O)NCNC1=O [primidone]
Effect on basal [Ca2+]i (primidone 100 µM, isosakuranetin 50 µM): reduced [Ca^2+]i

pregnenolone sulfate [PS]
PS concentration required to induce a detectable calcium response: 10 µM
